Key:
[1] = biological target: I2A; test: Receptor binding, I2A
[2] = biological target: I1 imidazoline receptor; test: I1 imidazoline receptor binding assay, 3H-clonidine, bovine VLM membranes; details: 25° C., 50 min
Experimental: Fresh bovine brain stems were obtained from a local slaughter house. After removal of pia-arachnoid, the medulla was isolated by dissecting the brain stem about 1 cm posterior and 1 cm caudal to the obex. The ventral quadrants of the medulla excluding the pyramids were used as the VLM. For each preparation, 30 to 40 VLM were used. Initial homogenization was performed in 20 volumes of 5 mM HEPES buffer (pH 7.4 at 4° C.) containing 250 mM sucrose, 50 uM Calpain I inhibitor (Boehginer Mannheim, Indianapolis, Ind.), 100 uM 1,10-phenanthroline (Sigma, St. Louis, Mo.) and 50 uM Pefabloc (Boehginer Mannheim, Indianapolis, Ind.), using Virtis homogenizer at setting 7 with three 10 second pulses, followed by three passes in a teflon-glass tissue homogenizer. The inhibitors were added to prevent degradation by proteases and peptidases. The homogenates were then centrifuged at 1000× g for 10 min and the resulting pellets were re-homogenized and centrifuged. Supernatants resulted from both runs were combined and centrifuged for 20 min at 48000× g. The pellets obtained were resuspended in a teflon-glass homogenizer in 50 mM Tris-HCl with 5 mM EDTA (pH 7.7 at 4° C.), centrifuged, and resuspended in 50 mM Tris-HCl with 25 mM NaCl, pH 7.7 at room temp. To remove endogenous ligands, the homogenate was incubated 30 min at room temp before it was centrifuged for 20 min at 48000× g. The pellets were then washed with 50 mM Tris-HCl buffer, (pH 7.4 at 4° C.) and loaded on top of 5 mM HEPES/0.85 M sucrose (pH 7.4 at 4° C.). Pellets obtained after centrifugation at 48000× g for 20 min were saved. The fatty connective tissue on the top layer was discarded. The partially purified VLM membrane pellets were then washed twice with 50 mM Tris-HCl, pH 7.7 at 4° C., flash frozen in dry ice/acetone slush, and stored at -100° C. until use. Receptor binding experiments were performed within days after the membrane preparation.
I1 imidazoline receptor binding affinity was determined from radioligand binding of ^3 H-clonidine (NEN, Boston, Mass.) to bovine VLM membranes. Specific activity of ^3 H-clonidine was 43 Ci/mmol. Kd of ^3 H-clonidine binding to the I1 imidazoline receptor was determined by saturation experiments and Ki of other ligands studied were determined by competition experiments. The radioligand binding assay was performed in Teflon 96-wells with the Biomek-1000 robotics (Beckman Instruments, Fullerton, Calif.). Each well contained […] ^3 H-Clonidine and 0.3 to 0.5 mg of bovine VLM protein in 5 mM HEPES buffer containing 0.5 mM EGTA and 0.5 mM MgCl2, pH 7.4 (0.1 mM ascorbic acid was added just before the protein). After 50 min of incubation at 25° C., the reaction was terminated by rapid filtration over Whatman GF/B filters treated with 0.1% polyethyleneimine and washed with 12 ml ice cold 50 mM Tris-HCl, pH 7.4 at 4° C. in a Brandel Harvester (Brandel, Gaithersburg, Md.). Both `hot` and `cold` saturation experiments were performed. In `hot` saturation experiments, studies were performed with ^3 H-clonidine ranging from 0.1 to 50 nM. In `cold` saturation experiments, studies were performed with 2 nM ^3 H-clonidine with 20 different concentrations of the unlabeled clonidine, ranging from 0.1 nM to 1 uM unlabeled clonidine. Non specific binding was defined by parallel incubations containing 10^-5 M phentolamine or naphazoline. Imidazoline binding was determined by parallel incubations in which the alpha-adrenergic sites were masked with 10^-5 M norepinephrine. During competition experiments, ligands of 20 concentrations ranged from 10^-11 to 10^-4 were used. Radioactivity was counted in a Beckman LS-3801 scintillation counter. Data were captured and analyzed with Accufit saturation and competition softwares modeled both for one-site and two-site fits (Beckman Instruments, Fullerton, Calif.) using an IBM compatible computer. All experiments were repeated at least twice.

[3] = biological target: α1; test: Receptor binding, [3H]prazosin, human cerebral cortex membranes (HCC); details: 22° C., 30 min
Experimental: Tissue preparation: Membrane suspensions were prepared from human cerebral cortex ([…], for α1 receptors) obtained from the UCI Organ and Tissue Bank. Briefly, tissues (1 g) were homogenized in 25 mL of ice-cold 5 mM Tris, pH 7.4 with a Polytron homogenizer for 30 sec at setting #7, and centrifuged for
10-12 minutes at 300× g at 4° C. The supernatant was filtered through 2 layers of gauze and diluted 1:2 with 50 mM Tris-HCl buffer, pH 7.4, then centrifuged at 49,000× g for 20 minutes. The pellet fraction was washed 3 times (resuspended in Tris-HCl buffer and centrifuged for 20 minutes; at 49,000× g). The pellet was then stored at -80° C. until the binding assay.
Binding Studies: The radioligands [^3 H]rauwolscine (specific activity 80 Ci/mmol) and [^3 H]prazosin (specific activity 76 Ci/mmol) were obtained from New England Nuclear, Boston, Mass. Frozen membrane pellet was resuspended in 25 mM glycine/glycine, pH 7.5 and incubated with radioligand under the following conditions: CHO-C10, CHO-RNG, CHO-C4-[^3 H]rauwolscine, 22° C., 30 minutes; RKC-[^3 H]rauwolscine, 0° C., 120 minutes; and, HCC-[^3 H]prazosin, 22° C., 30 minutes in a final volume of 500 ul. At the end of the incubation period, the samples were filtered through glass filters (Whatman GF/B) in a 96 well cell harvester and rapidly washed four times with 4 mL of iced-cold 50 mM Tris-HCl buffer. The filters were then oven dried and transferred to scintillation vials containing 10 mL of Beckman's Ready Protein® scintillation cocktail for counting. […] Protein concentrations were determined with a protein assay kit from Bio Rad. Binding isotherms, equilibrium dissociation and affinity constants were analyzed and determined by the non-linear least squares curve fitting programs EBDA (BioSoft) or AccuFit Competition/Saturation by Beckman.
The radioligands [^3 H] rauwolscine (specific activity 80 Ci/mmol) and [^3 H] prazosin (specific activity 76 Ci/mmol) were obtained from New England Nuclear, Boston, Mass. Frozen membrane pellet was resuspended in 25 mM glycine/glycine, pH 7.4 and incubated with radioligand under the following conditions: CHO-C10, CHO-RNG, CHO-C4-[^3 H]rauwolscine, 22° C., 30 min.; and, HCC-[^3 H]prazowsin, 22° C., 30 minutes in a final volume of 500 ul. At the end of the incubation period, the samples were filtered through glass fiber filters (Whatman GF/B) in a 96 well cell harvester and rapidly washed four times which 4 mL of iced-cold 50 mM Tris-CHI buffer. The filters were then oven dried and transferred to scintillation vials containing 5 mL of Beckman's Ready Protein® scintillation cocktail for counting. […] Protein concentrations were determined with a protein assay kit from Bio lad. Binding isotherms, equilibrium dissociation and affinity constants were analyzed and determined by the non-linear least squares curve fitting programs AccuFit Competition/Saturation by Beckman.
Representative compounds of the present invention were tested according to the procedures given above. […] The receptor binding studies and K1 are measures of the affinity of a compound for a particular receptor.

[4] = biological target: I2B; test: Receptor binding, I2B

| SMILES | Ki [1] | Ki [2] | Ki [3] | Ki [4] |
| --- | --- | --- | --- | --- |
| Cc1ccccc1NC1=NCCN1 [Example 1] | 1.2 µM | 0.012 µM | 5.03 µM | – |
| Nc1cc(Cl)c(NC2=NCCN2)c(Cl)c1 [Example 3] | 64.8 µM | 0.019 µM | 0.181 µM | 38.6 µM |
| c1cc2c(cc1NC1=NCCN1)NCCN2 [Example 7] | 100 µM | 1.99 µM | 5.1 µM | 10 µM |
| Cc1c(NC2=NCCN2)ccc2c1NCCN2 [Example 8] | 100 µM | 100 µM | 8.71 µM | 10 µM |
| Brc1c(NC2=NCCN2)ccc2c1NCCN2 [Example 9] | 7.56 µM | 4.58 µM | 1.12 µM | 4.59 µM |
| CC1CNc2c(ccc(NC3=NCCN3)c2Br)N1 (stereo not shown) [Example 10] | 24.8 µM | 3.95 µM | 6.61 µM | 3.26 µM |
| c1cc2c(cc1NC1=NCCN1)OCCO2 [Example 11] | 1.08 µM | 1.83 µM | 2.4 µM | 2.03 µM |
| COc1ccc(NC2=NCCN2)c(C)c1OC [Example 12] | 100 µM | 0.34 µM | 1.45 µM | 0.507 µM |
| Cc1c(NC2=NCCN2)ccc2c1OCCO2 [Example 13] | 100 µM | 0.831 µM | 0.129 µM | 1.22 µM |
| O=C1COc2ccc(NC3=NCCN3)cc2N1 [Example 14] | 4.5 µM | 11.6 µM | 8.99 µM | 6.52 µM |
| Cc1c(NC2=NCCN2)ccc2c1NC(=O)CO2 [Example 15] | – | 100 µM | 2.26 µM | – |
| Cc1c(NC2=NCCN2)ccc2c1NCCO2 [Example 16] | 100 µM | 7.11 µM | 0.473 µM | 12.1 µM |
| Cc1cccc(Nc2ncc[nH]2)c1C [Example 18] | 0.141 µM | 0.019 µM | 5.21 µM | 0.013 µM |
| Cc1c(O)cccc1Nc1ncc[nH]1 [Example 20] | – | 0.412 µM | 11.3 µM | – |
| COc1c(C(C)(C)C)cc(C)c(Nc2ncc[nH]2)c1C [Example 22] | 100 µM | 4.32 µM | 4.17 µM | 0.87 µM |
